# Test results published in ChEMBL document CHEMBL6115029, “Discovery of Daraxonrasib (RMC-6236), a Potent and Orally Bioavailable RAS(ON) Multi-selective, Noncovalent Tri-complex Inhibitor for the Treatment of Patients with Multiple RAS-Addicted Cancers” (J Med Chem, 2025).
# What was measured:
# [1] = molecular target: Peptidyl-prolyl cis-trans isomerase A (Homo sapiens, UniProt P62937); assay: Binding affinity to Avi-tagged Cyclophilin A (unknown origin) assessed as dissociation constant by SPR analysis
# [2] = Inhibition of 6His-tagged KRAS G12D mutant(1 to 169 residues)/GST-tagged GMPPNP-bound BRAF RBD (155 to 229 reisudes)/Cyclophilin A (unknown origin) tri-complex protein-protein interaction incubated for 3 hrs by TR-FERT based disruption assay; design: species or system Homo sapiens
# [3] = Inhibition of 6His-tagged KRAS G12C mutant(1 to 169 residues)/GST-tagged GMPPNP-bound BRAF RBD (155 to 229 reisudes)/Cyclophilin A (unknown origin) tri-complex protein-protein interaction incubated for 3 hrs by TR-FERT based disruption assay; design: species or system Homo sapiens
# [4] = Inhibition of 6His-tagged wildtype KRAS (1 to 169 residues)/GST-tagged GMPPNP-bound BRAF RBD (155 to 229 reisudes)/Cyclophilin A (unknown origin) tri-complex protein-protein interaction incubated for 3 hrs by TR-FERT based disruption assay; design: species or system Homo sapiens
# CAPAN-1 = assay: Cytotoxicity against human CAPAN-1 cells harboring KRAS G12V mutant cultured as 2D cells assessed as reduction in cell viability incubated for 120 hrs by CellTiter-Glo luminescence assay; format: functional, cell-based; settings: CAPAN-1, 120 h
# ASPC1 = assay: Cytotoxicity against human ASPC1 cells harboring KRAS G12D mutant cultured as 2D cells assessed as reduction in cell viability incubated for 120 hrs by CellTiter-Glo luminescence assay; format: functional, cell-based; settings: ASPC1, 120 h
# NCI-H358 = assay: Cytotoxicity against human NCI-H358 cells harboring KRAS G12C mutant cultured as 2D cells assessed as reduction in cell viability incubated for 120 hrs by CellTiter-Glo luminescence assay; format: functional, cell-based; settings: NCI-H358, 120 h
# NCI-H1975 = assay: Cytotoxicity against human NCI-H1975 cells harboring wildtype KRAS cultured as 2D cells assessed as reduction in cell viability incubated for 120 hrs by CellTiter-Glo luminescence assay; format: functional, cell-based; settings: NCI-H1975, 120 h
# [5] = Inhibition of ERK1/2 phosphorylation in human CAPAN-1 cells harboring KRAS G12V mutant incubated for 4 hrs by AlphaLISA assay; format: cell-based; settings: CAPAN-1, 4 h
# [6] = Inhibition of ERK1/2 phosphorylation in human NCI-H358 cells harboring KRAS G12C mutant incubated for 4 hrs by AlphaLISA assay; format: cell-based; settings: NCI-H358, 4 h
# [7] = Inhibition of ERK1/2 phosphorylation in human ASPC1 cells harboring KRAS G12D mutant incubated for 4 hrs by AlphaLISA assay; format: cell-based; settings: ASPC1, 4 h
# [8] = Metabolic stability in mouse liver microsomes assessed as half-life at 2 uM measured upto 60 mins in presence of NADPH by LC-MS/MS analysis; format: ADME, Microsome
# A-375 = assay: Cytotoxicity against human A-375 cells assessed as reduction in cell viability incubated for 120 hrs by CellTiter-Glo luminescence assay; format: functional, cell-based; settings: A-375, 120 h
# [9] = Kinetic solubility of compound in PBS at pH 7.4 measured after 5 hrs by UV analysis; format: physicochemical; settings: read-out: Kinetic_solubility
# [10] = Apparent permeability across apical to basolateral side in human Caco-2 cells at 5 uM incubated for 2 hrs by LC-MS/MS analysis; format: ADME, cell-based
# [11] = Efflux ratio of apparent permeability in human Caco-2 cells at 5 uM incubated for 2 hrs by LC-MS/MS analysis; format: ADME, cell-based
# [12] = Clearance in female BALB/c mouse at 1 mg/kg, iv measured after 24 hrs by LC-MS/MS analysis; format: ADME, organism-based; settings: in vivo
# [13] = Half-life in female BALB/c mouse at 1 mg/kg, iv measured after 24 hrs by LC-MS/MS analysis; format: ADME, organism-based; settings: in vivo
# [14] = Oral bioavailability in female BALB/c mouse at 10 mg/kg measured after 24 hrs by LC-MS/MS analysis; format: ADME, organism-based; settings: in vivo
# [15] = Inhibition of 6His-tagged KRAS G12V mutant(1 to 169 residues)/GST-tagged GMPPNP-bound BRAF RBD (155 to 229 reisudes)/Cyclophilin A (unknown origin) tri-complex protein-protein interaction incubated for 3 hrs by TR-FERT based disruption assay; design: species or system Homo sapiens
# [16] = Lipophilicity, logD of compound at pH 7.4 by Agilent 1290 II uPLC analysis; format: physicochemical; settings: buffer
# Chain of Peptidyl-prolyl cis-trans isomerase A (P62937 whole entry, the tested form may be a part): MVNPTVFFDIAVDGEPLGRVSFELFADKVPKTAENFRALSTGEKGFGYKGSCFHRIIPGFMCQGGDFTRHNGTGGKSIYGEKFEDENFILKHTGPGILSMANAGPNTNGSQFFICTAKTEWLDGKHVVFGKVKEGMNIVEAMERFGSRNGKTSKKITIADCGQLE
SMILES,Kd [1],IC50 [2],IC50 [3],IC50 [4],EC50 [5],EC50 [6],EC50 [7],half-life at 2 µM [8],solubility kinetic at 5 h [9],"Papp A→B at 2 h, 5 µM [10]","efflux ratio at 2 h, 5 µM [11]",clearance [12],half-life [13],bioavailability [14],IC50 [15],EC50 (CAPAN-1),EC50 (NCI-H358),EC50 (NCI-H1975),EC50 (A-375),EC50 (ASPC1),further results
CCn1c(-c2cccnc2[C@H](C)OC)c2c3cc(ccc31)-c1csc(n1)C[C@H](NC(=O)[C@H](C(C)C)N(C)C(=O)OC)C(=O)N1CCC[C@H](N1)C(=O)OCC(C)(C)C2,184 nM,3070 nM,302 nM,742 nM,8 nM,63 nM,326 nM,11 min,< 2 µM,0.08 ×10⁻⁶ cm/s,7.4,–,–,–,–,28 nM,35 nM,–,5420 nM,–,IC50 (ASPC1): 400 nM
CCn1c(-c2cc(N3CCN(C)CC3)cnc2[C@H](C)OC)c2c3cc(ccc31)-c1csc(n1)C[C@H](NC(=O)[C@H]1[C@@H]3COC[C@@H]31)C(=O)N1CCC[C@H](N1)C(=O)OCC(C)(C)C2,60 nM,151 nM,29 nM,69 nM,0.3 nM,1.7 nM,2.4 nM,> 120 min,23 µM,0.3 ×10⁻⁶ cm/s,43,–,–,–,40 nM,1.1 nM,0.4 nM,0.4 nM,9450 nM,2.1 nM,logD [16]: 4.1
CCn1c(-c2cccnc2[C@H](C)OC)c2c3cc(ccc31)-c1csc(n1)C[C@H](NC(=O)[C@H](C(C)C)N(C)C(=O)N(C)C)C(=O)N1CCC[C@H](N1)C(=O)OCC(C)(C)C2,468 nM,548 nM,58 nM,108 nM,3 nM,11 nM,42 nM,5 min,49 µM,0.94 ×10⁻⁶ cm/s,2.9,55 mL/min/kg,42 min,0.8%,–,18 nM,6 nM,26 nM,5820 nM,–,IC50 (ASPC1): 75 nM

# Further molecules by falling IC50 [2], results first:
Kd [1],IC50 [2],IC50 [3],IC50 [4],EC50 [5],EC50 [6],EC50 [7],half-life at 2 µM [8],solubility kinetic at 5 h [9],"Papp A→B at 2 h, 5 µM [10]","efflux ratio at 2 h, 5 µM [11]",clearance [12],half-life [13],bioavailability [14],IC50 [15],SMILES,EC50 (CAPAN-1),EC50 (NCI-H358),EC50 (NCI-H1975),EC50 (A-375),EC50 (ASPC1),further results
6520 nM,2310 nM,224 nM,628 nM,124 nM,952 nM,> 10000 nM,44 min,5 µM,3.1 ×10⁻⁶ cm/s,1.7,3.33 mL/min/kg,96 min,44%,334 nM,CCn1c(-c2cccnc2[C@H](C)OC)c2c3cc(ccc31)-c1csc(n1)C[C@H](NC(=O)[C@H]1CCO1)C(=O)N1CCC[C@H](N1)C(=O)OCC(C)(C)C2,615 nM,429 nM,402 nM,> 10000 nM,1640 nM,logD [16]: 4.3
293 nM,491 nM,35 nM,107 nM,2 nM,1 nM,22 nM,9 min,< 2 µM,0.09 ×10⁻⁶ cm/s,13.6,65 mL/min/kg,48 min,2.2%,–,CCn1c(-c2cccnc2[C@H](C)OC)c2c3cc(ccc31)-c1csc(n1)C[C@H](NC(=O)[C@H](C(C)C)N(C)C(=O)N1CCC1)C(=O)N1CCC[C@H](N1)C(=O)OCC(C)(C)C2,11 nM,7 nM,28 nM,4400 nM,–,IC50 (ASPC1): 37 nM
–,435 nM,50 nM,138 nM,2 nM,10.6 nM,50.1 nM,> 120 min,117 µM,0.4 ×10⁻⁶ cm/s,62,–,–,–,77 nM,CCn1c(-c2cc(N3CCN(C)CC3)cnc2[C@H](C)OC)c2c3cc(ccc31)-c1csc(n1)C[C@H](NC(=O)[C@H]1CCO1)C(=O)N1CCC[C@H](N1)C(=O)OCC(C)(C)C2,14.2 nM,22.3 nM,7.9 nM,6950 nM,45.2 nM,logD [16]: 4.3
2420 nM,346 nM,51 nM,139 nM,11 nM,26 nM,146 nM,26 min,15 µM,2.3 ×10⁻⁶ cm/s,7.5,6.67 mL/min/kg,126 min,49%,84 nM,CCn1c(-c2cccnc2[C@H](C)OC)c2c3cc(ccc31)-c1csc(n1)C[C@H](NC(=O)[C@H]1[C@@H]3COC[C@@H]31)C(=O)N1CCC[C@H](N1)C(=O)OCC(C)(C)C2,69 nM,30 nM,–,> 10000 nM,92 nM,–
396 nM,277 nM,50 nM,117 nM,1.3 nM,4.9 nM,15.2 nM,–,5 µM,2.2 ×10⁻⁶ cm/s,–,–,–,–,64 nM,CCn1c(-c2cc(N3CCN(C4CC4)CC3)cnc2[C@H](C)OC)c2c3cc(ccc31)-c1csc(n1)C[C@H](NC(=O)[C@H]1C[C@@H]1C)C(=O)N1CCC[C@H](N1)C(=O)OCC(C)(C)C2,8.1 nM,3.4 nM,–,> 10000 nM,13.9 nM,logD [16]: 5.3
